This note sets out measurements from ChEMBL document CHEMBL1154161, “Synthesis, kinetic studies and pharmacological evaluation of mutual azo prodrugs of 5-aminosalicylic acid for colon-specific drug delivery in inflammatory bowel disease” (Eur J Med Chem, 2009).

A short description of data set [1]: Partition coefficient, log P in n-octanol/phosphate buffer of pH 7.4. The format is physicochemical.
A short description of data set [2]: Aqueous solubility of the compound. The format is physicochemical. Particulars: aqueous medium.
The test system of data set [3] is Rattus norvegicus. The experiment in a line: Gastrointestinal toxicity in Wistar rat assessed as ulcer index at 3647.7 mg/kg, po by Rainsford's cold stress method. The data set is classed as organism-based. Conditions: in vivo. Further details: dose 3647.7 mg/kg, route oral.
A short description of data set [4]: Stability in rat feces assessed as half life at 250 ug/mL by UV spectrophotometry in presence of azo reductase. The format is ADME, tissue-based.
Data set [5] in a line: Stability in rat feces assessed as cumulated 5-aminosalicylic acid release measured for 6 to 7 hrs by UV spectrophotometry in presence of azo reductase. The format is ADME, tissue-based.
Data set [6] in a line: Stability in 0.05 M hydrochloric acid buffer of pH 1.2. The format is physicochemical.
Data set [7] concerns Rattus norvegicus. The experiment in a line: Antiinflammatory activity against trinitrobenzenesulfonic acid-induced colitis in Wistar rat at 100 mg/kg, administered rectally. The data set is classed as functional, organism-based. Further details: dose 100 mg/kg.
The test system of data set [8] is Rattus norvegicus. The experiment in a line: Antiinflammatory activity against trinitrobenzenesulfonic acid-induced colitis in Wistar rat assessed as decrease in colonic myeloperoxidase activity at 100 mg/kg, po measured 24 hrs after last dose on day 11 by spectrometry. The data set is classed as functional, organism-based. Details: dose 100 mg/kg.
In data set [9] the test system is Rattus norvegicus. As to the kind of experiment: Antiarthritic activity against Freund's adjuvant-induced arthritis in Wistar rat assessed as reduction in paw volume administered 13 days after Freund's adjuvant challenge measured on day 21. The data set is classed as functional. Further details: concentration or dose not given beside the values.
Data set [10] relates to Rattus norvegicus. The experiment in a line: Antiinflammatory activity against trinitrobenzenesulfonic acid-induced colitis in Wistar rat assessed as decrease in colon to body weight ratio at 100 mg/kg, po measured 24 hrs after last dose on day 11. The format is functional, organism-based. Further details: dose 100 mg/kg.
Data set [11] is described as follows: Stability in phosphate buffer of pH 7.4 assessed as drug release after 7 hrs. The data set is classed as physicochemical. Conditions: pH 7.4, 7 h.
Data set [12] deals with Rattus norvegicus. As to the kind of experiment: Gastrointestinal toxicity in Wistar rat assessed as ulcer index at 3050 mg/kg, po by Rainsford's cold stress method. Conditions: in vivo. The format is organism-based. Further details: dose 3050 mg/kg, route oral.
Data set [13] has as its system Rattus norvegicus. As to the kind of experiment: Antiinflammatory activity against trinitrobenzenesulfonic acid-induced colitis in Wistar rat assessed as decrease in appearance of mucosal abscess at 100 mg/kg administered rectally measured 24 hrs after last dose on day 11 by haematoxylin/eosin staining in presence of sulfasalazine. The data set is classed as functional, organism-based. Details: dose 100 mg/kg.

Data set [14] deals with Rattus norvegicus. As to the kind of experiment: Antiinflammatory activity against trinitrobenzenesulfonic acid-induced colitis in Wistar rat assessed as decrease in inflammatory cell infiltration at 100 mg/kg, po measured 24 hrs after last dose on day 11 by haematoxylin/eosin staining. The format is functional, organism-based. Further details: dose 100 mg/kg.
Data set [15] relates to Rattus norvegicus. The experiment in a line: Antiinflammatory activity against trinitrobenzenesulfonic acid-induced colitis in Wistar rat assessed as decrease in inflammatory cell infiltration at 100 mg/kg administered rectally measured 24 hrs after last dose on day 11 by haematoxylin/eosin staining in presence of sulfasalazine. Details: dose 100 mg/kg. The data set is classed as functional, organism-based.

Data set [16] has as its system Rattus norvegicus. As to the kind of experiment: Antiinflammatory activity against trinitrobenzenesulfonic acid-induced colitis in Wistar rat at 100 mg/kg, administered rectally in presence of 5-aminosalicylic acid. The data set is classed as functional, organism-based. Details: dose 100 mg/kg.
The subject of data set [17] is Rattus norvegicus. As to the kind of experiment: Antiinflammatory activity against trinitrobenzenesulfonic acid-induced colitis in Wistar rat assessed as decrease in appearance of mucosal abscess at 100 mg/kg, po measured 24 hrs after last dose on day 11 by haematoxylin/eosin staining. Details: dose 100 mg/kg. The format is functional, organism-based.
Data set [18] relates to Rattus norvegicus. The experiment in a line: Antiinflammatory activity against trinitrobenzenesulfonic acid-induced colitis in Wistar rat at 100 mg/kg, po. The format is functional, organism-based. Details: dose 100 mg/kg.
For data set [19], the system named is Rattus norvegicus. The experiment in a line: Antiinflammatory activity against trinitrobenzenesulfonic acid-induced colitis in Wistar rat assessed as decrease in inflammatory cell infiltration at 100 mg/kg administered rectallysmeasured 24 hrs after last dose on day 11 by haematoxylin/eosin staining. The data set is classed as functional, organism-based. Further details: dose 100 mg/kg.

Data set [20] deals with Rattus norvegicus. As to the kind of experiment: Antiinflammatory activity against trinitrobenzenesulfonic acid-induced colitis in Wistar rat assessed as decrease in appearance of mucosal abscess at 100 mg/kg administered rectally measured 24 hrs after last dose on day 11 by haematoxylin/eosin staining. The format is functional, organism-based. Further details: dose 100 mg/kg.

The test system of data set [21] is Rattus norvegicus. The experiment in a line: Gastrointestinal toxicity in Wistar rat assessed as ulcer index at 3000 mg/kg, po by Rainsford's cold stress method. Further details: dose 3000 mg/kg, route oral. Particulars: in vivo. The format is organism-based.
Data set [22] concerns Rattus norvegicus. The experiment in a line: Gastrointestinal toxicity in Wistar rat assessed as ulcer index at 1154.3 mg/kg, po by Rainsford's cold stress method. The format is organism-based. Further details: dose 1154.3 mg/kg, route oral. Particulars: in vivo.
Data set [23] relates to Rattus norvegicus. As to the kind of experiment: Gastrointestinal toxicity in Wistar rat assessed as ulcer index at 2829 mg/kg, po by Rainsford's cold stress method. The data set is classed as organism-based. Details: dose 2829 mg/kg, route oral. Particulars: in vivo.

Activity calls are given as the source filed them. No cut-off for these calls is given here.

For `O=C([O-])c1cc(/N=N/[C@@H](Cc2ccc(O)cc2)C(=O)[O-])ccc1O.[Na+].[Na+]`, the logD in [1] is 0.35. Besides, in data set [2], the solubility turned out to be 260 mg/mL. Moreover, the UI in the data set on Rattus norvegicus [3] was 10.76. Moreover, in data set [4], the half-life at 250 ug/mL was found to be 2.33 h. Moreover, the Activity is 87% in data set [5] and 62% with Rattus norvegicus [9]. In [6], the Stability entry is reported as “Stable”. For the same compound, the outcome in the data set on Rattus norvegicus [7], in the data set with Rattus norvegicus [8] and with Rattus norvegicus [10] was Active.

`O=C([O-])c1cc(/N=N/[C@H](Cc2ccccc2)C(=O)[O-])ccc1O.[Na+].[Na+]` had a logD in data set [1] of 0.3. The Activity turned out to be 15% in data set [11], 85% in data set [5] and 62% in the data set on Rattus norvegicus [9]. Moreover, in [2], the solubility came to 250 mg/mL. Besides, the half-life at 250 ug/mL in [4] was determined as 2.67 h. Further, the Stability result in data set [6] is “Stable”. Also, in the data set with Rattus norvegicus [12], the UI is 11.3. The result in the data set with Rattus norvegicus [7], in the data set with Rattus norvegicus [8] and in the data set on Rattus norvegicus [10] was Active.

`N[C@@H](Cc1c[nH]c2ccccc12)C(=O)O`: the outcome with Rattus norvegicus [13], in the data set on Rattus norvegicus [14], with Rattus norvegicus [15], in the data set on Rattus norvegicus [16], in the data set on Rattus norvegicus [17] and in the data set on Rattus norvegicus [18] was Active. The result with Rattus norvegicus [19] and in the data set with Rattus norvegicus [20] was Active.

Take `N[C@H](Cc1ccccc1)C(=O)O`: the outcome in the data set on Rattus norvegicus [13], in the data set on Rattus norvegicus [15], with Rattus norvegicus [16], in the data set on Rattus norvegicus [17], in the data set with Rattus norvegicus [7] and in the data set on Rattus norvegicus [19] was Active. In the data set with Rattus norvegicus [20], the result was Active.

For the compound `O=C(O)c1cc(/N=N/c2ccc(S(=O)(=O)Nc3ccccn3)cc2)ccc1O` [SULFASALAZINE], the UI with Rattus norvegicus [21] is given as 9. Further, the result in the data set with Rattus norvegicus [7], with Rattus norvegicus [8] and in the data set with Rattus norvegicus [10] was Active. In addition, the Activity with Rattus norvegicus [9] is 73%.

Take `N[C@@H](Cc1ccc(O)cc1)C(=O)O`: the outcome with Rattus norvegicus [14], with Rattus norvegicus [17] and in the data set on Rattus norvegicus [18] was inactive. Moreover, the outcome in the data set on Rattus norvegicus [15], in the data set on Rattus norvegicus [16] and in the data set with Rattus norvegicus [20] was Active.

Take `Nc1ccc(C(=O)O)c(O)c1` [AMINOSALICYLIC ACID]: the UI in the data set with Rattus norvegicus [22] is 69.61.

In data set [1], `O=C([O-])c1cc(/N=N/[C@@H](Cc2c[nH]c3ccccc23)C(=O)[O-])ccc1O.[Na+].[Na+]` returned a logD of 0.26. The Activity in [11] is recorded as 15%; in [5], 88%; in the data set with Rattus norvegicus [9], 62%. The same compound had a solubility in data set [2] of 280 mg/mL. The half-life at 250 ug/mL in data set [4] is 2.4 h. Also, the UI with Rattus norvegicus [23] was found to be 13. Besides, in data set [6], the Stability result is on record as “Stable”. In addition, the result in the data set on Rattus norvegicus [7], in the data set with Rattus norvegicus [8] and in the data set with Rattus norvegicus [10] was Active.

For `Nc1ccc(O)c(C(=O)O)c1` [MESALAMINE], the UI with Rattus norvegicus [22] turned out to be 60.03. Besides, in the data set on Rattus norvegicus [9], the Activity was determined as 47%.
